# Measurements: patent publication US9539237B2, “Compositions and methods for drug-sensitization or inhibition of a cancer cell” (The Texas A&M University System, priority 2012, dated 2017)
# How the values were obtained:
# [1] = system: CHOP-resistant G3 NHL cells; experiment: Cell growth assay (resazurin fluorescence) on G3 cells; assay type: cell-based, human
# Experimental: Compositions were tested on CHOP-resistant G3 NHL cells that had been cultivated in RPMI medium for five days. Prior to assay, the cells were counted by haemocytometer and cell concentration standardized to 625,000 cells/ml. Test drugs were solubilized in 100% DMSO and then diluted to final assay concentration with 0.1M phosphate buffered saline (PBS) and a final DMSO concentration of 0.5%. […] The metabolic dye rezasurin was added to the wells of the assay plate at a final concentration of 20 μg/ml and the plates were incubated for an additional 24 hours. The plates were then read in a BMG Polarstar plate reader at wavelength (573-605) and the data plotted as OD versus increasing dilutions (i.e., decreasing total amounts) of rifabutin derivative concentration.
# In these experiments, the following cell lines were used: CHOP-resistant NHL cell line G3, CHOP-sensitive NHL cell line CRL2631, the multi-drug resistant sarcoma cell line MES-SA-Dx5; multi-drug-resistant breast cancer cell line MDA-MB-231, multi-drug resistant ovarian carcinoma cell line SK-OV3, multi-drug resistant ovarian cancer cell line NCI/ADR-RES, drug-sensitive ovarian cancer cell line OVCAR-5, and multi-drug resistant ovarian cancer cell line OVCAR-3. […]
# [2] = system: lymphoma aspirate from a dog with CHOP-resistant lymphoma; experiment: CHOP responsiveness of lymphoma aspirate from a dog (resazurin); assay type: cell-based
# Experimental: A single lymphoma aspirate from a dog with CHOP-resistant lymphoma was tested for responsiveness to CHOP in the presence or absence of rifabutin. CHOP-responsiveness was measured by a decrease in fluorescence signal generated by resazurin.
# [3] = system: primary human fibroblasts; experiment: Comparative cytotoxicity on primary human fibroblasts; conditions: FIG. 3A and 3B
# total intracellular ROS = experiment: Intracellular ROS by CellROX staining and flow cytometry; assay type: cell-based; conditions: CHOP-resistant (G3) cells, 10 uM rifabutin, FIG. 35
# Text: Cells were then stained with the fluorescent ROS indicator, CellROX, and subjected to flow cytometry to quantitate total intracellular ROS.
# The electron transport chain (ETC) is known to be a primary generator of ROS in the cell. Most of the ROS is generated by Complexes I and III of the ETC. Inhibition of Complex I results in electrons piling up and leaking to react with oxygen to produce ROS.
# MDR/P-gp activity is closely associated with calcium status in the cell, so calcium modulators were tested for effects on ROS. […] Relatively Dox-sensitive lymphoma (CRL2631, 10S, WSU) and ovarian carcinoma (OVCAR8) and more Dox-resistant lymphoma (G3R, 10R, WSUR) and ovarian carcinoma (ADR) were treated with 10 uM […] for 2 hrs. […] Cells were co-stained with the cell-permeable red fluorescent ROS indicator, CellROX, and cell-permeable green fluorescent calcium indicator. Fluo-4AM, and then subjected to flow cytometry to quantitate changes in ROS and calcium levels.
# All samples were analyzed at the same time in flow cytometry.
# [4] = system: CHOP-sensitive NHL cell line CRL2631; experiment: Cell growth assay (resazurin fluorescence) on CRL2631 cells; assay type: cell-based, human
# Text: Several human cell lines were utilized as in vitro models of NHL, including the CRL2631 line obtained from the American Type Culture Collection (ATCC). CRL2631 was established from peripheral blood leukocytes (PBL) of a patient with DLBCL.
# In these experiments, the following cell lines were used: CHOP-resistant NHL cell line G3, CHOP-sensitive NHL cell line CRL2631, the multi-drug resistant sarcoma cell line MES-SA-Dx5; multi-drug-resistant breast cancer cell line MDA-MB-231, multi-drug resistant ovarian carcinoma cell line SK-OV3, multi-drug resistant ovarian cancer cell line NCI/ADR-RES, drug-sensitive ovarian cancer cell line OVCAR-5, and multi-drug resistant ovarian cancer cell line OVCAR-3.
# Additional cell lines used include: ovarian cancer OVCAR-8. T lymphoblastoid leukemia MOLT-4, dexamethasone-resistant multiple myeloma MM.1R, myeloid leukemia cells HL-60, osteosarcoma cells U-2 OS, and myeloma RPMI 8226.
# [5] = system: G3 CHOP-resistant NHL cells; experiment: G3 tumor efficacy studies in SCID mice; assay type: in vivo
# Experimental: In a first efficacy study, 6-8 week old female SCID mice (7 mice per treatment arm) were injected subcutaneously on both flanks with 1×10^7 G3 CHOP-resistant NHL cells. Once palpable tumors (about […] size) appeared, therapies (CHOP or CHOP+rifabutin) were started. CHOP was administered at the maximum tolerated dose (cyclophosphamide, 40 mg/kg i.v.; doxorubicin, 3.3 mg/kg i.v.; vincristine, 0.5 mg/kg i.v.; and prednisone, 0.2 mg/kg orally daily for 5 d) weekly for 3 weeks. Rifabutin in an amount of 100 mg/kg was administered on the day of each CHOP treatment and 24-hours later by gavage. Mouse body weight and tumor size were monitored every two days and tumor size measured by caliper. The tumor volume formula (L*W*W)/2 was used to calculate tumor mass.
# A second efficacy study was conducted where mice were treated before the appearance of palpable tumors. In that experiment, one week after transplantation of CHOP-resistant G3 cells, one group (7 mice) was treated with CHOP-only and a second group (8 mice) was treated with CHOP+rifabutin.
# A third study was conducted in which mice injected with CHOP-resistant G3 cells received reduced dosages of CHOP in combination with 33 mg/kg rifabutin. CHOP+rifabutin was administered weekly beginning one week post-inoculation. Control mice were given no CHOP or rifabutin.
# SCID mice were injected with CHOP-resistant G3 cells in the same manner as the first efficacy study above. Treatments began 2 weeks post-inoculation and were administered twice weekly.
# Akt = experiment: Effect on Akt; assay type: cell-based
# Text: Although some drug-sensitization or cancer cell inhibition effects may be mediated by the ROS pathway, compositions and methods of the present disclosure may act via other cellular pathways alternatively to or in addition to the Akt/14-3-3ζ/ETC/ROS network. This may be particularly true with respect to drug-sensitization to chemotherapeutics that operate in a different manner than CHOP. For example, ROS may affect the mitochondrial-directed Bcl-2 apoptosis pathway as well. […] Accordingly, it appears likely that an initial ROS induction event may occur, followed by a secondary downstream effect downregulating Akt. In CHOP-resistant cells, Akt is constitutively active thereby increasing Complex I activity resulting in decreases in ROS. Induction of ROS by compositions and methods of the present disclosure will further promote drug sensitivity in the resistant cancer cell by downregulating the Akt pathway.
compound,measurement,setting,value
"CO[C@H]1/C=C/O[C@@]2(C)Oc3c(C)c(O)c4c(c3C2=O)C2=NC3(CCN(CC(C)C)CC3)NC2=C(NC(=O)/C(C)=C\C=C\[C@H](C)[C@H](O)[C@@H](C)[C@@H](O)[C@@H](C)[C@H](OC(C)=O)[C@@H]1C)C4=O [Rifabutin, rifabutin]",Magnitude of potentiation in combination with doxorubicin,[1]; G3,+++ (+++ potentiation greater than 5 fold increase)
same,Effect on growth of cells in the absence of CHOP,"[1]; G3 cells, FIG. 2A",did not affect the growth
same,Sensitivity of aspirated lymphoma cells to CHOP,[2]; 5 μM rifabutin,significantly enhanced the sensitivity
same,Effect on cell viability in the absence of CHOP,[2]; absence of CHOP,no effect
same,Toxicity to normal cells,[3],not toxic
same,Induction of ROS,total intracellular ROS,rapidly induces ROS
same,Sensitivity of cells to CHOP,"[4]; CHOP-sensitive cells, relative to a control drug, FIG. 2B",enhanced the sensitivity
same,Effect on growth of cells in the absence of CHOP,"[4]; CRL2631 cells, FIG. 2A",did not affect the growth
same,Sensitization of low-ROS cell population to CHOP,"[4]; low-ROS CRL2631 cells, 10 uM rifabutin, FIG. 34",sensitized to CHOP
same,Overall tumor burden per mouse versus CHOP only,"[5]; first study, CHOP at maximum tolerated dose weekly for 3 weeks + rifabutin 100 mg/kg by gavage",much lower
same,Tumor load versus untreated mice,"[5]; third study, reduced dosages of CHOP + 33 mg/kg rifabutin weekly",significantly less
same,Time for the effect on Akt,Akt,at least 18 hours
